Laboratory results reported in US20070026408A1, “Materials and methods for analysis of atp-binding cassette transporter gene expression” (priority 2003, published 2007).
Counter-ions that a name gives are not always drawn.

Tests used:
abcF2 = assay: DT1 microarray drug screening, drug-treated HepG2: abcF2; assay type: cell-based, human; conditions: HepG2, doxorubicin HCl 25 nM, standard 11
Procedure: (§1) The labelled cDNA target preparation was thawed and the 150 μl added to 850 ul hybridisation buffer (500 mM sodium Phosphate pH 6.0, 1% SDS, 1% BSA, 1 mM EDTA) in a 1.5 ml microtube and heated at 95° C. for 10 min.

abcG8 = assay: DT1 microarray drug screening, drug-treated HepG2: abcG8; assay type: cell-based, human; conditions: HepG2, doxorubicin HCl 25 nM, standard 11
Procedure: as §1

abcC8 = assay: DT1 microarray drug screening, drug-treated HepG2: abcC8; assay type: cell-based, human; conditions: HepG2, doxorubicin HCl 25 nM, standard 11
Procedure: as §1

abcG4 = assay: DT1 microarray drug screening, drug-treated HepG2: abcG4; assay type: cell-based, human; conditions: HepG2, doxorubicin HCl 25 nM, standard 11
Procedure: as §1

abcB8 = assay: DT1 microarray drug screening, drug-treated HepG2: abcB8; assay type: cell-based, human; conditions: HepG2, doxorubicin HCl 25 nM, standard 11
Procedure: as §1

abcB10 = assay: DT1 microarray drug screening, drug-treated HepG2: abcB10; conditions: HepG2, doxorubicin HCl 25 nM, standard 11
abcG2 = assay: DT1 microarray drug screening, drug-treated HepG2: abcG2; assay type: cell-based, human; conditions: HepG2, doxorubicin HCl 25 nM, standard 11
Procedure: as §1

abcG5 = assay: DT1 microarray drug screening, drug-treated HepG2: abcG5; assay type: cell-based, human; conditions: HepG2, doxorubicin HCl 25 nM, standard 11
Procedure: as §1

abcC2 = assay: DT1 microarray drug screening, drug-treated HepG2: abcC2; assay type: cell-based, human; conditions: HepG2, doxorubicin HCl 25 nM, standard 11
Procedure: as §1

abcE1 = assay: DT1 microarray drug screening, drug-treated HepG2: abcE1; assay type: cell-based, human; conditions: HepG2, doxorubicin HCl 25 nM, standard 11
Procedure: as §1

abcB9 = assay: DT1 microarray drug screening, drug-treated HepG2: abcB9; assay type: cell-based, human; conditions: HepG2, doxorubicin HCl 25 nM, standard 11
Procedure: as §1

abcA6 = assay: DT1 microarray drug screening, drug-treated HepG2: abcA6; assay type: cell-based, human; conditions: HepG2, doxorubicin HCl 25 nM, standard 11
Procedure: as §1

abcA1 = assay: DT1 microarray drug screening, drug-treated HepG2: abcA1; assay type: cell-based, human; conditions: HepG2, doxorubicin HCl 25 nM, standard 11
Procedure: as §1

abcA7 = assay: DT1 microarray drug screening, drug-treated HepG2: abcA7; assay type: cell-based, human; conditions: HepG2, doxorubicin HCl 25 nM, standard 11
Procedure: as §1

abcB3 = assay: DT1 microarray drug screening, drug-treated HepG2: abcB3; assay type: cell-based, human; conditions: HepG2, doxorubicin HCl 25 nM, standard 11
Procedure: as §1

abcB7 = assay: DT1 microarray drug screening, drug-treated HepG2: abcB7; assay type: cell-based, human; conditions: HepG2, doxorubicin HCl 25 nM, standard 11
Procedure: as §1

abcC13 = assay: DT1 microarray drug screening, drug-treated HepG2: abcC13; assay type: cell-based, human; conditions: HepG2, doxorubicin HCl 25 nM, standard 11
Procedure: as §1

abcC3 = assay: DT1 microarray drug screening, drug-treated HepG2: abcC3; assay type: cell-based, human; conditions: HepG2, doxorubicin HCl 25 nM, standard 11
Procedure: as §1

abcA12 = assay: DT1 microarray drug screening, drug-treated HepG2: abcA12; assay type: cell-based, human; conditions: HepG2, doxorubicin HCl 25 nM, standard 11
Procedure: as §1

abcC11 = assay: DT1 microarray drug screening, drug-treated HepG2: abcC11; assay type: cell-based, human; conditions: HepG2, doxorubicin HCl 25 nM, standard 11
Procedure: as §1

abcA8 = assay: DT1 microarray drug screening, drug-treated HepG2: abcA8; assay type: cell-based, human; conditions: HepG2, doxorubicin HCl 25 nM, standard 11
Procedure: as §1

abcB6 = assay: DT1 microarray drug screening, drug-treated HepG2: abcB6; assay type: cell-based, human; conditions: HepG2, doxorubicin HCl 25 nM, standard 11
Procedure: as §1

abcA3 = assay: DT1 microarray drug screening, drug-treated HepG2: abcA3; assay type: cell-based, human; conditions: HepG2, doxorubicin HCl 25 nM, standard 11
Procedure: as §1

abcA10 = assay: DT1 microarray drug screening, drug-treated HepG2: abcA10; assay type: cell-based, human; conditions: HepG2, doxorubicin HCl 25 nM, 2 h, standard 11
Procedure: as §1

## COc1cccc2c1C(=O)c1c(O)c3c(c(O)c1C2=O)C[C@@](O)(C(=O)CO)C[C@@H]3O[C@H]1C[C@H](N)[C@H](O)[C@H](C)O1 [dox, doxorubicin HCl]
abcF2; 2 h
  relative level of abcF2 gene expression: 5.979
abcF2; 4 h
  relative level of abcF2 gene expression: 4.068
abcF2; 8 h
  relative level of abcF2 gene expression: 4.807
abcG8; 2 h
  relative level of abcG8 gene expression: 4.697
abcG8; 4 h
  relative level of abcG8 gene expression: 2.811
abcG8; 8 h
  relative level of abcG8 gene expression: 2.9413
abcC8; 2 h
  relative level of abcC8 gene expression: 0.3229
abcC8; 4 h
  relative level of abcC8 gene expression: 0.2437
abcC8; 8 h
  relative level of abcC8 gene expression: 0.2255
abcG4; 2 h
  relative level of abcG4 gene expression: 9.59
abcG4; 4 h
  relative level of abcG4 gene expression: 5.309
abcG4; 8 h
  relative level of abcG4 gene expression: 6.271
abcB8; 2 h
  relative level of abcB8 gene expression: 8.004
abcB8; 4 h
  relative level of abcB8 gene expression: 5.438
abcB8; 8 h
  relative level of abcB8 gene expression: 5.353
abcB10; 2 h
  relative level of abcB10 gene expression: 2.116
abcB10; 4 h
  relative level of abcB10 gene expression: 1.484
abcB10; 8 h
  relative level of abcB10 gene expression: 1.542
abcG2; 2 h
  relative level of abcG2 gene expression: 2.989
abcG2; 4 h
  relative level of abcG2 gene expression: 2.137
abcG2; 8 h
  relative level of abcG2 gene expression: 2.08
abcG5; 2 h
  relative level of abcG5 gene expression: 2.201
abcG5; 4 h
  relative level of abcG5 gene expression: 1.764
abcG5; 8 h
  relative level of abcG5 gene expression: 1.752
abcC2; 2 h
  relative level of abcC2 gene expression: 0.6141
abcC2; 4 h
  relative level of abcC2 gene expression: 0.3603
abcC2; 8 h
  relative level of abcC2 gene expression: 0.3548
abcE1; 2 h
  relative level of abcE1 gene expression: 4.155
abcE1; 4 h
  relative level of abcE1 gene expression: 2.794
abcE1; 8 h
  relative level of abcE1 gene expression: 3.088
abcB9; 2 h
  relative level of abcB9 gene expression: 8.388
abcB9; 4 h
  relative level of abcB9 gene expression: 4.897
abcB9; 8 h
  relative level of abcB9 gene expression: 5.523
abcA6; 2 h
  relative level of abcA6 gene expression: 6.045
abcA6; 4 h
  relative level of abcA6 gene expression: 3.367
abcA6; 8 h
  relative level of abcA6 gene expression: 4.296
abcA1; 2 h
  relative level of abcA1 gene expression: 3.053
abcA1; 4 h
  relative level of abcA1 gene expression: 1.866
abcA1; 8 h
  relative level of abcA1 gene expression: 2.346
abcA7; 2 h
  relative level of abcA7 gene expression: 1.842
abcA7; 4 h
  relative level of abcA7 gene expression: 0.933
abcA7; 8 h
  relative level of abcA7 gene expression: 0.9351
abcB3; 2 h
  relative level of abcB3 gene expression: 6.838
abcB3; 4 h
  relative level of abcB3 gene expression: 4.325
abcB3; 8 h
  relative level of abcB3 gene expression: 4.813
abcB7; 2 h
  relative level of abcB7 gene expression: 0.2622
abcB7; 4 h
  relative level of abcB7 gene expression: 0.1619
abcB7; 8 h
  relative level of abcB7 gene expression: 0.1766
abcC13; 2 h
  relative level of abcC13 gene expression: 3.203
abcC13; 4 h
  relative level of abcC13 gene expression: 2.548
abcC13; 8 h
  relative level of abcC13 gene expression: 2.593
abcC3; 2 h
  relative level of abcC3 gene expression: 7.156
abcC3; 4 h
  relative level of abcC3 gene expression: 4.014
abcC3; 8 h
  relative level of abcC3 gene expression: 4.2
abcA12; 2 h
  relative level of abcA12 gene expression: 5.829
abcA12; 4 h
  relative level of abcA12 gene expression: 3.419
abcA12; 8 h
  relative level of abcA12 gene expression: 4.195
abcC11; 2 h
  relative level of abcC11 gene expression: 7.608
abcC11; 4 h
  relative level of abcC11 gene expression: 4.384
abcC11; 8 h
  relative level of abcC11 gene expression: 5.056
abcA8; 2 h
  relative level of abcA8 gene expression: 3.036
abcA8; 4 h
  relative level of abcA8 gene expression: 1.786
abcA8; 8 h
  relative level of abcA8 gene expression: 2.174
abcB6; 2 h
  relative level of abcB6 gene expression: 5.174
abcB6; 4 h
  relative level of abcB6 gene expression: 3.283
abcB6; 8 h
  relative level of abcB6 gene expression: 3.612
abcA3; 2 h
  relative level of abcA3 gene expression: 8.071
abcA3; 4 h
  relative level of abcA3 gene expression: 4.291
abcA3; 8 h
  relative level of abcA3 gene expression: 5.179
abcA10
  relative level of abcA10 gene expression: 4.82
